From patent publication US7521447B2, “P38 inhibitors and methods of use thereof” (Array Biopharma Inc., priority 2003, dated 2009)

Assays:
activated p38α enzyme = activated p38α enzyme (Homo sapiens, UniProt Q16539); assay: p38 Biochemical Assay; set-up: key: An “active” compound is defined as a compound having an IC50 below 500 nM; details: 5 nM activated p38α, 1 uM ATF-2 substrate, 10 μM ATP
Method: P38 activity was assayed at room temperature in a 100 μl reaction containing 5 nM activated p38α enzyme and 1 uM ATF-2 (Activating Transcription Factor 2 fusion protein) as the substrate in 25 mM HEPES (pH 7.4), 100 μM Vanadate, 1 mM DTT, 10 mM MgCl2 and 10 μM [[…]-^33P]-ATP (˜0.1 μCi P^33/reaction). The reaction was terminated after 30-40 minutes by adding 25% TCA, let stand for 5 minutes and then transferred directly to a GF-B membrane filter plate. The filter was washed twice for 30 seconds with 0.5% phosphoric acid using a Tomtec Mach III Automated Harvestor. After washing, the vacuum was continued for 30 seconds to dry the filter. Approximately 30 μl of scintillant was added per well to the filter plate and then read in a Liquid Scintillation Counter (Packard TopCount HTS).

[1] = test system: LPS-induced TNF-α secretion from human peripheral blood mononuclear cells (PBMC); assay: PBMC Assay: inhibition of LPS-induced TNF-α secretion; type: cell-based; set-up: key: An “active” compound is defined as a compound having an IC50 below 500 nM; details: LPS-stimulated human PBMC, TNF-α ELISA
Method: The ability of compounds of this invention to inhibit TNF-α production was assessed by using human peripheral blood mononuclear cells (“PBMC”) which synthesize and secrete TNF-α when stimulated with lipopolysaccharide.
Compound test solutions were made by making 5 fold serial dilutions in DMSO, which dilutions were then diluted to 5× stocks by diluting with MEM, 2% heat inactivated fetal bovine serum (“FBS”), 20 mM HEPES, 2 mM L-glutamine, and 1% penicillin/streptomycin.
PBMC's were isolated from human blood as follows. Whole blood samples were collected from human volunteers into Vacutainer™ CPT from Becton Dickinson. Tubes were mixed and centrifuged at room temperature (18-25° C.) in a horizontal rotor for a minimum of 15 minutes at 1500-1800 RCF (relative centrifugal force). For each donor, the buffy coat layers were pooled into a single tube and washed twice with phosphate buffered saline (“PBS”). The cell pellet was resuspended in MEM, 2% heat inactivated fetal bovine serum (“FBS”), 20 mM HEPES, 2 mM L-glutamine, and 1% penicillin/streptomycin. Total cell number was determined using a hemocytometer and the cell suspension was adjusted to 2×10^6 cells/mL.
0.1 mL of cell suspension was added to each well of a 96-well cell culture plate. 30 μL of a compound test solution was added, and the cells were incubated in a 37° C./5% CO2 incubator for 1 hour. 20 μL of 7.5 ng/mL lipopolysaccharide (LPS E. Coli K-235) was then added to each well, and the cells were returned to the 37° C./5% CO2 incubator for 16-20 hours. The cells were centrifuged for 15 minutes at 1100 RCF. Approximately 0.12 mL of the supernatant was transferred into a clean 96 well polypropylene plate. The samples were either assayed immediately or were stored at −80° C. until ready for assay. TNF-α levels were determined in each sample using a human TNF-α ELISA assay such as that described below.
TNF-α levels were determined using the following assay. TNF-alpha antibody coated plates were prepared by adding 150 μL of 2 μg/mL anti-TNF-α purified mouse monoclonal IgG in Carbonate-Bicarbonate buffer (BupH™ Carbonate-Bicarbonate Buffer Pack) to wells of a 96-well Immulon 4 plate (Immulon 4 ELISA Flat Bottom Plate; Dynex, catalog number 011-010-3855) and incubated overnight at 2-8° C. Coating solution was removed and 200 μL of “blocking buffer” (20 mM HEPES pH 7.4, 150 mM NaCl, 2% BSA) was added and plates were stored 2-8° C. until ready to use. A ten-point recombinant human TNF-α standard curve was prepared by a 1:2 serial dilution in “sample diluent” (20 mM HEPES, pH 7.4, 150 mM NaCl, 2 mM MgCl2, 1% BSA) with a top concentration of 6000 pg/mL.
Blocking solution was removed from TNF-α ELISA plates by washing five times with 300 μL of “wash buffer” (20 mM HEPES, pH 7.4, 150 mM NaCl, 2 mM MgCl2, 0.02% Tween-20). 50 μL of “sample diluent” was added to all wells, and then either 50 μL of a TNF-α standard curve solution or test compound supernatant was added to all wells. The plate was incubated at room temperature for one hour with shaking (300 rpm). The plate was washed wash five times with 300 μL “wash buffer”. 100 μL of 0.2 μg/mL biotinylated goat anti-human TNF-α in “antibody diluent” (20 mM HEPES, pH 7.4, 150 mM NaCl, 2 mM MgCl2, 1% BSA, 0.02% Tween-20) was added per well, and the plate was incubated at room temperature for one hour with shaking (300 rpm). The plate was washed wash five times with 300 μL “wash buffer” per well. 100 μL of 0.02 μg/mL streptavidin alkaline phosphatase in “antibody diluent” was added per well, and the plate was incubated at room temperature for one hour with shaking (300 rpm). The plate was washed wash five times with 300 μL wash buffer per well. 200 μL of 1 mg/mL pNPP (p-nitrophenyl phosphate) in diethanolamine buffer with 0.5 mM MgCl2 was added per well, and the plate was incubated for 30 to 45 minutes at room temperature with shaking (300 rpm). […]

Chain of activated p38α enzyme (Q16539 whole entry, the tested form may be a part): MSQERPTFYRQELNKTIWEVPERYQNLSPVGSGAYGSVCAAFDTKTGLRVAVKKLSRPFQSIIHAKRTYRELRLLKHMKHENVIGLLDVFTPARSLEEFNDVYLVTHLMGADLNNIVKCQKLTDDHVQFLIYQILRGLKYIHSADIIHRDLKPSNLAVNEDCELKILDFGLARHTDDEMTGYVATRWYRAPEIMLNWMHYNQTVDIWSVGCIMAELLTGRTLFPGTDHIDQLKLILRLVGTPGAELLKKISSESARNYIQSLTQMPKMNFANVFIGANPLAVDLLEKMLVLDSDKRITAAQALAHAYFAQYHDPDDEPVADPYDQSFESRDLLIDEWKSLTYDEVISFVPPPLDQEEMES

p38 Inhibition IC50 (nM) (activated p38α enzyme)	Compound	PBMC IC50 (nM) [1]
active	CC(C)Cn1ncc2cc(Nc3ccc(F)cc3F)ccc21 [Compound 2h-1, (2,4-difluorophenyl)-(1-isobutyl-1H-indazol-5-yl)-amine]	active
active	CC(C)Cn1ncc2cc(Nc3ccc(F)cc3)ccc21 [Compound 2h-2, (4-fluorophenyl)-(1-isobutyl-1H-indazol-5-yl)-amine]	active
active	Cc1ccccc1Nc1ccc2c(cnn2CC(C)C)c1 [Compound 2h-10, (1-isobutyl-1H-indazol-5-yl)-O-tolyl-amine]	active
active	CC(C)Cn1ncc2cc(C(O)c3ccc(F)cc3F)ccc21 (stereo not drawn) [Compound 4f-1, (2,4-difluorophenyl)-(1-isobutyl-1H-indazol-5-yl)-methanol]	active
active	CC(C)Cn1ncc2cc(C(O)c3ccc(F)cc3)ccc21 (stereo not drawn) [Compound 4f-2, (4-fluorophenyl)-(1-isobutyl-1H-indazol-5-yl)-methanol]	active
active	CC(C)Cn1ncc2cc(C(O)c3ccc(Cl)cc3Cl)ccc21 (stereo not drawn) [Compound 4f-9, (2,4-dichlorophenyl)-(1-isobutyl-1H-indazol-5-yl)-methanol]	inactive
active	CC(C)Cn1ncc2cc(C(=O)c3ccc(F)cc3F)ccc21 [Compound 5f-1, (2,4-difluorophenyl)-(1-isobutyl-1H-indazol-5-yl)-methanone]	active
active	CC(C)Cn1ncc2cc(C(=O)c3ccc(F)cc3)ccc21 [Compound 5f-2, (4-fluorophenyl)-(1-isobutyl-1H-indazol-5-yl)-methanone]	active
active	CC(C)Cn1ncc2cc(C(=O)c3ccc(Cl)cc3F)ccc21 [Compound 5f-7, (4-chloro-2-fluorophenyl)-(1-isobutyl-1H-indazol-5-yl)-methanone]	active
active	CC(C)Cn1ncc2cc(C(=O)c3ccc(Cl)cc3Cl)ccc21 [Compound 5f-9, (2,4-dichlorophenyl)-(1-isobutyl-1H-indazol-5-yl)-methanone]	active
active	Cc1ccccc1C(=O)c1ccc2c(cnn2CC(C)C)c1 [Compound 5f-10, (1-isobutyl-1H-indazol-5-yl)-O-tolyl-methanone]	active
active	CC(C)Cn1ncc2cc(C(=NO)c3ccc(F)cc3F)ccc21 [Compound 7f-1, (2,4-difluorophenyl)-(1-isobutyl-1H-indazol-5-yl)-methanone oxime]	active
active	CC(C)Cn1ncc2cc(C(=NO)c3ccc(F)cc3)ccc21 [Compound 7f-2, (4-fluorophenyl)-(1-isobutyl-1H-indazol-5-yl)-methanone oxime]	active
active	CCON=C(c1ccc2c(cnn2CC(C)C)c1)c1ccc(F)cc1F [Compound 7f-3, (2,4-difluorophenyl)-(1-isobutyl-1H-indazol-5-yl)-methanone O-ethyl-oxime]	active

Compound	p38 Inhibition IC50 (nM) (activated p38α enzyme)	PBMC IC50 (nM) [1]
CC(C)Cn1ncc2cc(Oc3ccc(F)cc3)c(C(=O)NCCN(C)C)cc21 [Compound 11g-10, 5-(4-fluorophenoxy)-1-isobutyl-1H-indazole-6-carboxylic acid (2-dimethylaminoethyl)-amide]	active	active
